The term Ki denotes the equilibrium dissociation constant of an inhibitor or competing ligand from its target.

The source of these data is ChEMBL document CHEMBL6083178, “Chemistry and pharmacological aspects of furanoid cannabinoids and related compounds: Is furanoid cannabinoids open a new dimension towards the non-psychoactive cannabinoids?” (Eur J Med Chem, 2024).

Assay [1] has as its target T1, Cannabinoid receptor 1 (Homo sapiens, UniProt P21554). Kind of assay: Displacement of [3H]CP55940 from CB1 receptor (unknown origin) assessed as inhibition constant measured after 90 mins.
The target of assay [2] is T2, Cannabinoid receptor 2 (Homo sapiens, UniProt P34972). Kind of assay: Binding affinity to CB2 receptor (unknown origin) assessed as inhibition constant measured after 90 mins.
T2 sequence (P34972 whole entry): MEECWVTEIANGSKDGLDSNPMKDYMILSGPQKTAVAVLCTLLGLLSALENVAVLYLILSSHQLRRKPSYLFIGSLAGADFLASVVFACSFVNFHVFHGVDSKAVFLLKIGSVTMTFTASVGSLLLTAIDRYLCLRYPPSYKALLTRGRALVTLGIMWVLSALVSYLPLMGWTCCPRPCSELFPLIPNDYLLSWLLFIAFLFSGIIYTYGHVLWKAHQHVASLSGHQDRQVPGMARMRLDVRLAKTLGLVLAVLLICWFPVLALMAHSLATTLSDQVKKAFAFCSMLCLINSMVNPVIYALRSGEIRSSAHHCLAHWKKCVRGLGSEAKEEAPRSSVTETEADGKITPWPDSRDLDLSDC
Assay [3] addresses Cannabinoid receptor 1 (Mus musculus, UniProt P47746). Put plainly: Displacement of [3H]CP55940 from mouse brain CB1 receptor assessed as inhibition constant. Background: In a radioligand displacement assay an active substance lowers the binding of a labelled ligand.
Assay [4] concerns the target T2, Cannabinoid receptor 2. Kind of assay: Displacement of [3H]HU-243 from human CB2 receptor assessed as inhibition constant.
The target in assay [5] is T1, Cannabinoid receptor 1. Put plainly: Displacement of [3H]CP55940 from human CB1 receptor assessed as inhibition constant.

T1 sequence (P21554 whole entry): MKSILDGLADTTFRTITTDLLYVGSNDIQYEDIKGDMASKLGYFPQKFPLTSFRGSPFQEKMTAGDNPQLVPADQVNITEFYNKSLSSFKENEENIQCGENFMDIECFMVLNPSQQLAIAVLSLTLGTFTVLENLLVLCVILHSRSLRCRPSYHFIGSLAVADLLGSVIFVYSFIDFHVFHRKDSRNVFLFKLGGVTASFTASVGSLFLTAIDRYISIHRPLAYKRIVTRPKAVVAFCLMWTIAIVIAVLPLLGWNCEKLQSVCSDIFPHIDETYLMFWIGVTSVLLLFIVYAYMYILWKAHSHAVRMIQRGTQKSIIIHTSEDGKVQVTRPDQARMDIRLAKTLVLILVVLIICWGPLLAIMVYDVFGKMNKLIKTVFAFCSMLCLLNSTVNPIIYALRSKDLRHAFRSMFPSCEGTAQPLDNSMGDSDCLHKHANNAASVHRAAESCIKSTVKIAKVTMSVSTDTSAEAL
Sequence of Cannabinoid receptor 1 (Mus musculus, UniProt P47746) (P47746 whole entry): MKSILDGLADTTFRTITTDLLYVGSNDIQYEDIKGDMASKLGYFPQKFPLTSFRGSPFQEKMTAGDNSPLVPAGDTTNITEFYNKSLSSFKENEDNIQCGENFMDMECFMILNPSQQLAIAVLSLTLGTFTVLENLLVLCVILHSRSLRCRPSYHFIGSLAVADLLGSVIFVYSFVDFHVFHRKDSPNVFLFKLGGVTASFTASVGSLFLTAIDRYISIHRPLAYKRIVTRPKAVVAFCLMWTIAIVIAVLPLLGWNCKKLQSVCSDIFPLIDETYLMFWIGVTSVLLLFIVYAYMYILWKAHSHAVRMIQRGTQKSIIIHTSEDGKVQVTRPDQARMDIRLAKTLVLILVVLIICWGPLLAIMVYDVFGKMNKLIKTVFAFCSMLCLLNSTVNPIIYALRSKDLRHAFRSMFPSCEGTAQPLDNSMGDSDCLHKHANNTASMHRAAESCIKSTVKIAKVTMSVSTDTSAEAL

In the case of `CCCCCc1cc(O)c2c(c1)OC(C)(CCC=C(C)C)C=C2` (configuration not stated) [CANNABICHROMENE], the figures for the Ki in assay [1] and in assay [2] were 700 nM and 200 nM, respectively.

As to `C=C(C)[C@@H]1CCC(C)=C[C@H]1c1c(O)cc(CCCCC)cc1O` [CANNABIDIOL], the Ki in assay [3] amounted to 4400 nM.

On to `CCCCCc1cc(O)c(C/C=C(\C)CCC=C(C)C)c(O)c1` [CANNABIGEROL], for which the values for the Ki in assay [4] and in assay [5] were 100 nM and 400 nM, respectively.

On to `CCCCCc1cc(O)c2c(c1)OC(C)(C)c1ccc(C)cc1-2` [CANNABINOL], for which the Ki in assay [5] stood at 100 nM.

For the molecule `CCCc1cc(O)c2c(c1)OC(C)(C)[C@@H]1CCC(C)=C[C@@H]21` [TETRAHYDROCANNABIVARIN], the Ki in assay [5] is 80 nM.
